The values that follow come from US20070053831A1, “Methods for binding agents to b-amyloid plaques” (priority 2003, published 2007).

One data set has as its system senile plaques. As to the kind of experiment: Digital autoradiography with [18F]FDDNP of AD brain specimens pretreated with nonradioactive agents. In kind it is binding, human. Here is the method: Brain specimens from a postmortem-diagnosed definite AD patient were treated. Briefly, formalin-treated, cryoprotected brain specimens were sectioned 70 μm thick coronally mounted on gelatine-coated glass slides, allowed to dry, and were defatted for 40 min in xylene prior to rinsing of the tissue with ethanol. Finally, lipofuscin autofluorescence in some brain specimens was quenched prior to staining using 10 mM CuCl2 in 50 mM ammonium acetate buffer, pH 5. The quenching determined the origin of lipofuscin fluorescence in brain specimens. […] Pretreated and cryosections with no competitor were incubated for 25 min at room temperature with […] of [^18[…] dissolved in 10 mL of 1% ethanol in 0.9% saline (w/v) per cryosection. Following incubation, the sections were optimally washed with water (30 sec); 60% 2-methyl-2-butanol (3 min; Sigma) agitated at 40 RPMs on a Junior Orbit Shaker (Lab-Line Instruments, Melrose Park, Ill.) for differentiation (Bancroft and Stevens, 1990); and then water (30 sec). The sections were dried on a warm hot plate with a steady stream of warm air, exposed to β^+-sensitive phosphor plates for 40 min Fuji Film Medical Systems USA, Stamford, Conn.), and scanned with a FUJI BAS 5000 Phosphorimager (Fuji) at a resolution of 25 μm, as described previously ([…] et al., 2001a). […] FIG. 2Q) in the autoradiograms. Autoradiography was carried out at least in triplicate for each competitor. Statistical analysis of the autoradiograms involved one-way ANOVA with Dunnett's post test using Prism 3.02 (GraphPad, San Diego, Calif.) to compare the differences in the ratio of gray matter-to-white matter (FIG. 2Q) radioactivity of [^18]FDDNP in autoradiograms pretreated with the nonradioactive agents and without pretreatment. Unpaired t-tests were performed to compare the difference of measured [^18[…] radioactivity per area of tissue (Bq/mm^2) in the gray and white matter of each autoradiogram. The same brain specimens used for autoradiography were observed using fluorescence microscopy. Tissues were mounted with Vectashield (Vector, Burlingame, Calif.) and observed with a Nikon Labophot fluorescence microscope (Nikon USA, Melville, N.Y.) with a FITC filter set.

Another data set addresses T1, β-amyloid (1-40) fibrils (Homo sapiens, UniProt P05067).
T1 construct: β-amyloid (1-40) (Biosource, Camarillo, Calif.) fibrils were prepared; purchased Biosource, Camarillo, Calif; host or cells: synthetic peptide
The data set can be described thus: In vitro competition assay with [18F]FDDNP on synthetic β-amyloid (1-40) fibrils (vacuum filtration). The following applies: for dose dependent decrease in the specific binding of [18F]FDDNP: 0.1 pM to 83 μM of nonradioactive agent; for Ki: synthetic β-amyloid (1-40) fibrils, 1 h, PBS pH 7.4, ±SD, read-out: Ki (decrease in the binding of [18F]FDDNP). In kind it is binding. As to the method:
Potential therapeutic agents were evaluated to determine their ability to bind to β-amyloid fibrils. • Amyloid (1-40) fibril formation. β-amyloid (1-40) (Biosource, Camarillo, Calif.) fibrils were prepared. 0.5 mg of β-amyloid (1-40) was dissolved in 1 mL PBS, pH 7.4 and mixed with a magnetic stir bar for 3 days at 37° C. resulting in a visibly cloudy solution. Fibrils were used immediately after their production was confirmed. The production of 13-amyloid fibrils was confirmed by imaging with a Jeol 100CX transmission electron microscope (Jeol, Peabody, Mass.). A 5 μL drop from a fibril solution was allowed to settle for 30 s on a treated copper grid before being washed away with a drop of 2% uranyl acetate solution. Finally, an additional drop of 2% uranyl acetate was added to the grid to negatively stain the fibrils. Fibrils were used immediately after their production was confirmed. Additional tests for fibril formation using Congo red (CR, Sigma) and Thioflavine T (TT, Sigma) were performed, as well. The absence of fibrils in the filtrate in the in vitro competition assays described below was determined by the same tests using CR. In vitro competition assays with [^18[…] against NSAIDs and charge amyloid dyes. Solutions of nonradioactive agents, namely (S)-naproxen (Sigma), (R)-ibuprofen (BIOMOL, Plymouth Meeting, Pa.), (S)-ibuprofen (Sigma), diclofenac (Sigma), CR and TT, were prepared fresh for each radioactive competition assay. APFF glass fiber filters (0.7 μm particle retention; Millipore, Bedford, Mass.) were used in a 1225 sampling manifold (Millipore) that was modified with stainless steel support screens (Millipore) and glass sample chambers. Vacuum filtration involved 0.865 μg/mL of in vitro fibrils of synthetic β-amyloid (1-40) and 37 MBq/mL of [^18[…] incubated for 1 h in PBS, pH 7.4 (1% ethanol) with various concentrations of the nonradioactive agents with the range of 0.1 pM to 83 μM. Each filter was then washed twice with 3 ml of PBS, pH 7.4. The radioactivity retained by the filters was measured and decay-corrected to a common reference time with a Packard Cobra II Auto-Gamma gamma counter (Packard, Meriden, Conn.). […] All competition assays were performed in triplicate. Competition results were analyzed and then Ki values calculated using the Ligand Binding Module for SigmaPlot 2001 (SPSS, Chicago, Ill.).

Data set [1] concerns the target T2, β-amyloid 1-40 injected into rat cortex (Homo sapiens, UniProt P05067).
T2 construct: unilateral stereotaxic injection of 3 μg of aggregated β-amyloid 1-40 into rat cortex; host or cells: exogenous peptide fibrils injected into rat brain
The data set can be described thus: DDNP labeling of β-amyloid injected into rat brain in vivo. The following applies: rats, FIGS. 2A to 2E. Here is the method: β-amyloid 250 μM (1.25 mg/mL in distilled water) was aggregated at 37° C. for 48 hours to produce fibrils confirmed by smears. Three rats were anesthetized. 3 μL of a solution of Aβ fibrils (1.25 μg/μL) were injected unilaterally into the cortex of each rat (Bregma 0, AP-4.1 mm, ML+2.0 mm, DV-3.1 mm). Then 3 μL of phosphate buffered saline (PBS) were injected into the contralateral side of each rat brain as a vehicle control. After injection, the needle remained for 5 minutes to prevent reflux, and then the cranial hole was sealed with bone wax. Eight days after β-amyloid injection into the rat brains, the rats were injected with 10 microliters of DDNP working solution (320 micromolar) prepared by diluting DDNP stock solution into 1.5% BSA (bovine serum albumin) in phosphate buffered saline, pH 7.2).
After one hour, the rats were cardiac perfused with PLP fixative (4% paraformaldehyde, 1% lysin in 0.05 M phosphate buffer, pH 7.4). Additional immersion fixation of rat brain was at 4° C. overnight with PLP fixative. The rat brains were washed with PBS, saturated in 10 and 20% sucrose, and snap frozen in chilled isopentane (−70° C.) with liquid nitrogen. The brains were cryostat sectioned at […] around the needle-track and directly coverslipped with glycerol and fluorescence protectant (Vectashield™).

For data set [2], the system named is neurofibrillary tangles, amyloid peptides, and diffuse amyloid. The data set can be described thus: In vitro fluorescence labeling of Alzheimer's disease brain specimens with DDNP and [F-18]FDDNP. The arrangement: species or system human. The conditions noted are these: all Alzheimer's disease brain specimens.
The nature of data set [3]: Storage of DDNP stock solution. In kind it is physicochemical. The following applies: 8 mM in 100% ethanol, freezer; used at 1/100 to 1/1,000 dilutions. As to the method: (§1) A 2.1 mg/mL DDNP stock solution was prepared, which was adjusted to 8 mM in 100% ethanol. A DDNP working solution was prepared by diluting the stock solution with distilled water in a ratio of 1:100-1000 (stock solution:distilled water).

Data set [4] concerns amyloid plaques and tangles. As to the kind of experiment: DDNP fluorescence labeling of brain tissue sections in vitro. The arrangement: species or system human. Here is the method: as §1
β-amyloid 250 μM (1.25 mg/mL in distilled water) was aggregated at 37° C. for 48 hours. 5 μL were smeared on slides, air-dried and then rehydrated with distilled water. Alternatively, Aβ-positive brain tissue sections were rehydrated with distilled water. DDNP working solution was applied to each slide for 30 minutes at room temperature. The slides were washed three times for five minutes with distilled water. The slides were coverslipped with fluorescent protectant mounding media (Vectashield™, available Vector Labs., Burlingame, Calif.) and observed under a fluorescence microscope with a thioflavin S or FITC filter.

The test system of data set [5] is β-amyloid plaques and neurofibrillary tangles. As to the kind of experiment: PET with [F-18]FDDNP in patients. In kind it is in vivo, human. As to the method:
A patient was placed in a tomograph to obtain brain dynamic PET images. 8.0 mCi of 2-(1.1-dicyanopropen-2-yl)-6-(2-[^18F]-fluoroethyl)-methylamino)-naphthalene ([F18]FDDNP) (specific activity: 5-12 Ci/micromol; mass: ˜1 nanomol), prepared as described in Example 1(f), were injected intravenously into the arm of the patient. Dynamic acquisition data of brain images were recorded simultaneously in forty-seven brain planes for two hours.
Labeling and detection of human β-amyloid plaques and neurofibrillary tangles in vivo were conducted using the following procedures. Ten human subjects, seven Alzheimer's diseased patients (ages 71 to 80) and three control patients (ages 62 to 82) were studied. The patients were positioned supine in an EXACT HR+962 tomograph (Siemens-CTI, Knoxville, Tenn.) with the imaging plane parallel to the orbito-meatal line. Venous catheterization was performed, and then [F-18]FDDNP (5-10 mCi) in human serum albumin (25%) was administered as a bolus via the venous catheter. Sequential emission scans were obtained beginning immediately after [F-18]FDDNP administration using the following scan sequence: six 30 second scans, four 3 minute scans, five 10 minute scans, and three 20 minute scans. Rapid venous blood sampling was performed via the indwelling catheter in two subjects for input function determination and plasma metabolite analysis.
The residence time shown is in reference to that in the pons, an area known to have limited involvement in Alzheimer's disease pathology. The residence time was calculated from the clearance rates of the tracer in affected regions of interest (ROI) and in the pons as: Residence time=[1/clearance rate for affected ROI]−[1/clearance rate for pons] Separate ROIs were defined in entorhinal cortex, hippocampus, lateral temporal cortex and pons. The region with the slowest clearance rate was used as the affected ROI in the calculation of the residence time shown in FIG. 4.

Setting [6] is: AD brain specimens pretreated with 40 μM agent for 60 min.
[7] abbreviates: cortex of the brain of an Alzheimer's disease patient, FIG. 1B.
The mark [8] stands for this setting: AD brain specimens pretreated with 100 nM agent for 60 min.

Each structure is given as a SMILES string.

T1 sequence (P05067 672-711 limits assumed): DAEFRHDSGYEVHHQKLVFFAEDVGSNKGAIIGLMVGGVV
T2 sequence (P05067 672-711 limits assumed): as above

`CN(C)c1ccc2cc(-c3ccn4ccnc4c3C#N)ccc2c1` registered a melting point of 268 to 269 °C. For `Nc1c(/N=N/c2ccc(-c3ccc(/N=N/c4cc(S(=O)(=O)O)c5ccccc5c4N)cc3)cc2)cc(S(=O)(=O)O)c2ccccc12` [CR, Congo red], the “specific binding of [18F]FDDNP to regions of gray matter with senile plaques” value (shortened to “specific binding … with senile plaques”) in the data set on senile plaques (setting [6]) is recorded as “minimal effect”. Further, the “dose dependent decrease in the specific binding of [18F]FDDNP” value (“dose dependent decrease” below) at β-amyloid (1-40) fibrils is reported as “did not exhibit a dose dependent decrease”. Take `O=C(O)Cc1ccccc1Nc1c(Cl)cccc1Cl` [Diclofenac, diclofenac]: the “specific binding … with senile plaques” value in the data set with senile plaques (setting [6]) is given as “minimal effect”. Further, the “dose dependent decrease” value on β-amyloid (1-40) fibrils is listed as “did not exhibit a dose dependent decrease”.

In the case of `CN(C)c1ccc2cc(-c3ccnc(SCCO)c3C#N)ccc2c1`, the melting point lay within 210 to 212 °C.

For the compound `CN(C)c1ccc2cc(C(/C=C\NCCO)=C(C#N)C#N)ccc2c1`, the melting point was 168 to 170 °C. As for `CC(=C(C#N)C#N)c1ccc2cc(N(C)C)ccc2c1` [DDNP, 2-(1,1-dicyanopropen-2-yl)-6-dimethylaminonaphthalene], the melting point is 154.5 to 155 °C. The “passage of the blood brain barrier” value in data set [1] is “passes the blood brain barrier”. Moreover, the “visualization of neurofibrillary tangles, amyloid peptides, and diffuse amyloid” value in data set [2] is reported as “excellent visualization”. The “stability of stock solution” value in data set [3] is “can be kept in the freezer for six months and still produce acceptable results”. Further, in data set [4] (setting [7]), the labeling of plaques result is given as “strong” and the labeling of tangles result was “weak”. Also, the “labeling of amyloid deposits in cryostat and paraffin sections of AD brain tissue” value in data set [4] (fluorescence microscopy) is “readily labeled amyloid deposits”. With `CC(=C(C#N)C#N)c1ccc2cc(N(C)CC[18F])ccc2c1` [[F-18]FDDNP], in data set [2], the “visualization of neurofibrillary tangles, amyloid peptides, and diffuse amyloid” value was “excellent visualization”. Also, the “estimated residence time (in reference to pons)” value in data set [5] (Alzheimer's diseased patients versus control patients, FIG. 4) was “different from values in control patients”. The “regional clearance from brain” value in data set [5] (brain areas known to accumulate β-amyloid plaques and neurofibrillary tangles) is recorded as “slower clearance”. Besides, the “crossing of the blood brain barrier” value in data set [5] (human, intravenous injection) is on record as “crosses the blood brain barrier readily in proportion to blood flow”. On to `CC(C)Cc1ccc([C@@H](C)C(=O)O)cc1` [(R)-ibuprofen], for which the “specific binding … with senile plaques” value with senile plaques (setting [6]) was “significantly reduced”. Also, at β-amyloid (1-40) fibrils, the inhibition constant (Ki) came to 44.4 ± 17.4 µM. Regarding `COc1ccc2cc([C@H](C)C(=O)O)ccc2c1` [(S)-naproxen], the “specific binding … with senile plaques” value in the data set on senile plaques (setting [8]) was “significantly reduced”. For the same compound, the Ki on β-amyloid (1-40) fibrils is 0.0057 ± 0.00131 µM. For the compound `CC(=C(C#N)C#N)c1ccc2cc(N(C)CCF)ccc2c1` [FDDNP], in the data set with senile plaques (setting [8]), the “specific binding … with senile plaques” value is recorded as “significantly reduced”. In turn, `CN(C)/C=C/C(=C(C#N)C#N)c1ccc2cc(N(C)C)ccc2c1` registered a melting point of 213 to 215 °C. Take `COc1nccc(-c2ccc3cc(N(C)C)ccc3c2)c1C#N`: the melting point lay within 150 to 151 °C.

With `CC(C)Cc1ccc([C@H](C)C(=O)O)cc1` [(S)-ibuprofen], in the data set with senile plaques (setting [6]), the “specific binding … with senile plaques” value was “significantly reduced”. For the same compound, the Ki on β-amyloid (1-40) fibrils was 11.3 ± 5.2 µM. As to `CN(C)c1ccc2cc(-c3ccnc(N)c3C#N)ccc2c1.O`, the melting point fell in the range of 256 to 257 °C.

As to `Cc1ccc2c(c1)sc(-c1ccc(N(C)C)cc1)[n+]2C.[Cl-]` [TT, Thioflavine T], the “specific binding … with senile plaques” value with senile plaques (setting [6]) was “minimal effect”. Moreover, the “dose dependent decrease” value on β-amyloid (1-40) fibrils was “did not exhibit a dose dependent decrease”.

`CN(C)c1ccc2cc(-c3ccnc(Cl)c3C#N)ccc2c1` registered a melting point of 198 to 200 °C.

Broadly, the melting point is the temperature, or range, at which the solid turns liquid. Broadly, the Ki is a measure of affinity in units of concentration, obtained from inhibition or displacement.
